Reference: PubChem BioAssay AID1259407 (Chemical Carcinogenesis Research Information System (CCRIS), 2018)
Activity calls are given as the source filed them. The rule behind the calls is not given here.

Tested on: CCRIS mutagenicity, Ames/micronucleus/aberration tests
Experiment: CCRIS mutagenicity studies
Details: Test System: AMES SALMONELLA TYPHIMURIUM

Measured: mutagenic call

O=C1CCc2ccccc2O1
inactive: Strain/Indicator: TA98, Metabolic Activation: HAMSTER, LIVER, S-9, AROCLOR 1254 (10%), Method: PREINCUBATION inactive; negative | Strain/Indicator: TA98, Metabolic Activation: HAMSTER, LIVER, S-9, AROCLOR 1254, Method: PREINCUBATION inactive; negative | Strain/Indicator: TA98, Metabolic Activation: NONE, Method: PREINCUBATION inactive; negative | Strain/Indicator: TA98, Metabolic Activation: RAT, LIVER, S-9, AROCLOR 1254 (10%), Method: PREINCUBATION inactive; negative | Strain/Indicator: TA98, Metabolic Activation: RAT, LIVER, S-9, AROCLOR 1254, Method: PREINCUBATION inactive; negative | Strain/Indicator: TA100, Metabolic Activation: HAMSTER, LIVER, S-9, AROCLOR 1254 (10%), Method: PREINCUBATION inactive; negative | Strain/Indicator: TA100, Metabolic Activation: HAMSTER, LIVER, S-9, AROCLOR 1254, Method: PREINCUBATION inactive; negative | Strain/Indicator: TA100, Metabolic Activation: NONE, Method: PREINCUBATION inactive; negative | Strain/Indicator: TA100, Metabolic Activation: RAT, LIVER, S-9, AROCLOR 1254 (10%), Method: PREINCUBATION inactive; negative | Strain/Indicator: TA100, Metabolic Activation: RAT, LIVER, S-9, AROCLOR 1254, Method: PREINCUBATION inactive; negative | Strain/Indicator: TA1535, Metabolic Activation: HAMSTER, LIVER, S-9, AROCLOR 1254 (10%), Method: PREINCUBATION inactive; negative | Strain/Indicator: TA1535, Metabolic Activation: HAMSTER, LIVER, S-9, AROCLOR 1254, Method: PREINCUBATION inactive; negative | Strain/Indicator: TA1535, Metabolic Activation: NONE, Method: PREINCUBATION inactive; negative | Strain/Indicator: TA1535, Metabolic Activation: RAT, LIVER, S-9, AROCLOR 1254 (10%), Method: PREINCUBATION inactive; negative | Strain/Indicator: TA1535, Metabolic Activation: RAT, LIVER, S-9, AROCLOR 1254, Method: PREINCUBATION inactive; negative | Strain/Indicator: TA1537, Metabolic Activation: HAMSTER, LIVER, S-9, AROCLOR 1254 (10%), Method: PREINCUBATION inactive; negative | Strain/Indicator: TA1537, Metabolic Activation: HAMSTER, LIVER, S-9, AROCLOR 1254, Method: PREINCUBATION inactive; negative | Strain/Indicator: TA1537, Metabolic Activation: NONE, Method: PREINCUBATION inactive; negative | Strain/Indicator: TA1537, Metabolic Activation: RAT, LIVER, S-9, AROCLOR 1254 (10%), Method: PREINCUBATION inactive; negative | Strain/Indicator: TA1537, Metabolic Activation: RAT, LIVER, S-9, AROCLOR 1254, Method: PREINCUBATION inactive; negative

CCC(=O)NCc1ccccc1
inactive: Strain/Indicator: TA100, Metabolic Activation: NONE, Method: STANDARD PLATE inactive; negative
